Laboratory results: patent US10251902B2, “Pharmaceutical composition for treating or preventing neuropsychiatric disease, containing flavone-6-C-glucose derivatives as active ingredients” (priority 2013, dated 2019)

Experiments:
Format in all cases: in vivo, ICR mice
[1] = test system: brain cells in the hippocampal region, mouse model of stroke; assay: Neurological scoring of hippocampal brain cell damage (Nissl staining) in mouse model of stroke; details: for Neurological Score: Table 13, score 0-3 points of hippocampal damage
Protocol: (§1) Seven-week old ICR mice in about 30 g to 35 g (Orientbio Inc, Republic of Korea) were received water and feed without constraint and adapted for 5 days under an environment having about 23±1° C. of temperature, about 60±10% of humidity and 12-hour light/dark cycle (animal laboratory at College of Pharmacy, Kyung-Hee University), and then used for the experiment.
The laboratory animal in 1) was located in an operating room, adapted for 60 minutes, and anesthetized in a space providing anaesthetic gasses (nitrous oxide: 70%; oxygen: 30%; isoflurane: 2.0%). Pain reflex was examined to confirm the anesthesia. The laboratory animal was lain down straight on an operating table, and fixed its upper limb and head. Skin from the spot, where the upper limb and the center line meet, was incised as 1.5 cm to expose the both common carotid arteries by using tweezers while not damaging the tissues. Tissues and nerves attached to the exposed carotid arteries were separated and fixed with an aneurysm clip. The clip was removed after 15 minutes and reperfused, and the incised area was sutured with sutures. After the suture, the laboratory animal was immediately moved to a recovery room (32-33° C., O2 enrichment condition) and kept until it recovers from anesthesia. Observation on its weight and status was conducted once a day for 4 days after the operation.
Meanwhile, upon termination of the Y-maze test, a 4% paraformaldehyde fixation was conducted on the drug administration groups 1-3 and the control 2, and brain was excised. Paraformaldehyde-fixed brain sample was washed and section having 30 μm of thickness was prepared therefrom. The Nissl staining, which can stain a native region of brain cells in normal status, was performed. Brain cell damage in the hippocampal region of the drug administration groups 1-3, wherein the Swertia japonica extract prepared in Example 1 was administered, and the controls 1 and 2 was assessed through a neurological scoring. Pertaining to the evaluation standard, 0 point was scored when there was no damage on the hippocampal region; 1 point for 0-30% of damage; 2 points for 30-60% of damage; and 3 points for 60-100% of damage. The points were scored by 3 people who have no knowledge of the drug administration groups and the controls. Average point was used to calculate the degree of damage.
Upon termination of the Y-maze test, the drug administration groups 1-3 and the control 2 were sacrificed to prepare the brain section, and the Nissl staining was conducted to evaluate brain cell damage in the hippocampal region of the drug administration groups 1-3, wherein swertisin prepared in Example 3 was administered, and the controls 1 and 2 through the neurological scoring.

[2] = test system: pentobarbital-induced sleep; assay: Sleep-inducing test (pentobarbital); details: swertisin 10 mg/kg
Protocol: as §1, with “Six-week” for “Seven-week”, “26” for “30”, “28” for “35”, “experiment. Foods were blocked at 24 hours before the test.” for “experiment.”
The mice prepared in 1) were divided into […] (10 mice per each group) including the drug administration group 1, wherein swertisin was administered, and the controls 1 and 2. Swertisin prepared in Example 3 was dissolved in 10% Tween 80 (Polyoxyethylene sorbitan monooleate: Sigma, U.S.A.) and administered to the drug administration group 1 in an amount of 10 mg/kg. Meanwhile, 0.15 mL of 10% Tween 80 was administered to the control 1.
After 1 hour of administration, pentobarbital was dissolved in a saline solution and intraperitoneally administered to the mouse in an amount of 60 mg/kg. The mouse was located in the cage. At this time, straw was laid in the cage only enough to cover the floor, and only one mouse was located in the cage for observation. […]

[3] = test system: model of memory impairment induced by scopolamine; assay: Y-maze test in scopolamine-treated mice; details: scopolamine 1 mg/Kg i.p.; for Alternation Behavior (%): Table 6, 8 minutes in Y-maze; for Total Entry: Table 7, total number of entry to each branch, 8 minutes
Protocol: An experiment was conducted to confirm effects of swertisin or isoorientin, and extracts of Swertia pseudochinensis or Swertia japonica containing the same prepared in Examples 1 to 3 in treating dementia by using a model of memory impairment induced by scopolamine. Detailed method follows.
as §1, with “Six-week” for “Seven-week”, “26” for “30”, “28” for “35”
A Y-maze was prepared for the experiment. The Y-maze has 3 branches and each branch has 42 cm of length, 3 cm of width and 12 cm of height. Angle between any two arms is 120 degrees and the arms were made of black polyvinyl resin.
The mice prepared in the above 1) were separated into 5 groups (10 mice per each group) comprised of drug administration groups 1 and 2, and controls 1 to 3.
The swertisin prepared in Example 3 (8 mg) was dissolved in 4 mL of 10% Tween 80 (Polyoxyethylene sorbitan monooleate: Sigma, U.S.A.), and administered to the drug administration groups 1 and 2 in an amounts of 5 mg/Kg and 10 mg/Kg respectively. Meanwhile, 5 mg/Kg of donepezil was administered to the control 1, and 0.15 mL of 10% Tween 80 was administered to the controls 2 and 3 respectively.
About 30 minutes later, 1 mg/Kg of scopolamine, which was dissolved in distilled water, was intraperitoneally administered to the drug administration groups 1 and 2, and controls 1 and 2 (Ebert, U. et al., Eur. J. Clin. Invest., 28, pp. 944-949, 1998), and 0.9% of saline solution was intraperitoneally administered to the control 3.
After 30 minutes, mice of the drug administration groups 1 and 2, and the controls 1-3 were carefully located on each branches of the Y-maze, which was divided as A, B and C respectively, and let the mice move freely for 8 minutes, and then recorded branches where mice have entered. The entrance was recorded when the entire body (i.e. including the tail) has completely entered. It was also recorded when the mice entered again into the branch that the mice have entered before.
One point was scored when the mouse sequentially entered into 3 different branches (actual alternation). Alternation behavior is defined as sequentially entering into every 3 branch, and it was converted into % via Equation 1 below (Sarter, M. et al., Psychopharmacology., 94, pp. 491-495, […]).

COc1cc2oc(-c3ccc(O)cc3)cc(=O)c2c(O)c1[C@@H]1O[C@H](CO)[C@@H](O)[C@H](O)[C@H]1O [swertisin]
Neurological Score ([1]; swertisin 50 mg/kg for 7 days): 1.8130 ± 0.3750 | Neurological Score ([1]; swertisin 100 mg/kg for 7 days): 1.2500 ± 0.2500 | Neurological Score ([1]; swertisin 200 mg/kg for 7 days): 1.1670 ± 0.5204 | neurological score, in words ([1]; swertisin 200 mg/kg (drug administration group 3) versus stroke-induced group): significant result to the stroke-induced group | total sleep time compared to the control 1, in words ([2]; pentobarbital 60 mg/kg i.p.): remarkably decreased | Total Sleep Time ([2]; pentobarbital 60 mg/kg i.p. 1 hour after administration): 94.47 ± 21.83 min | Alternation Behavior (%) ([3]; swertisin 5 mg/kg): 56.22 ± 12.29% | Alternation Behavior (%) ([3]; swertisin 10 mg/kg): 59.36 ± 5.653% | Total Entry ([3]; swertisin 5 mg/kg): 27.10 ± 7.795 | Total Entry ([3]; swertisin 10 mg/kg): 28.88 ± 4.155
